Key:
[1] = system: hypertriglyceridemic patients with cardiovascular disease or at high risk for cardiovascular disease; test: REDUCE-IT: post hoc control group response analyses (placebo patients with biomarker increase vs no change/decrease); format: in vivo, human
Description: The objective of the following example was to perform a control group analysis of the ischemic events in patients from the REDUCE-IT trial, as described in Example 1. The study focused on exploring if outcomes were affected by possible malabsorption. If mineral oil in the placebo might have negatively affected statin absorption in some patients, this could have contributed to differences in outcomes between the groups.

[2] = system: hypertriglyceridemic patients with cardiovascular disease or at high risk for cardiovascular disease; test: REDUCE-IT: primary and key secondary endpoints adjusted for baseline covariates (stepwise selection) and time varying post-baseline lipids; format: in vivo, human; conditions: ITT
Experimental: The primary efficacy analysis was performed on the ITT population. A sensitivity analysis was performed using the mITT and PP populations. As a sensitivity analysis, patients who discontinued study drug prematurely were censored for the primary composite endpoint analysis on the date of drug discontinuation. The primary analysis was repeated using this censoring rule for the mITT population. As a supportive analysis, a multivariable, stratified Cox proportional hazards model was constructed for the primary endpoint to evaluate the treatment effect adjusting for important covariates.
As an additional exploratory analysis, the relationship between post-baseline biomarker values and treatment effects with the primary and key secondary endpoints were assessed by adding biomarker values (for example, at 4 months, or at 1 year, etc.) as time-dependent covariates in the Cox proportional hazards model. Diagnostic plots for the proportional hazard's assumption was evaluated. Weight was measured at the screening visit and at all follow-up visits, including the last visit of the study. Waist circumference was measured at the randomization visit (Visit 2; Day 0), Visit 5 (Day 720) and the last visit of the study. Descriptive statistics were presented by visit and treatment group for baseline, post-treatment change from baseline, and the percent change from baseline. Analysis methods for repeated measurements were used to compare percent change from baseline between treatments.
In the main analysis of the primary endpoint for the REDUCE-IT trial, treatment was the only covariate employed in the stratified Cox proportional hazards model. Stratification variables included CV risk category at baseline (primary prevention cohort and secondary prevention cohort), use of ezetimibe at baseline (yes/no), and geographical region (Westernized, Eastern European, and Asia Pacific).
The model included treatment and any of the following variables, identified by a stepwise selection procedure: (1) sex; (2) age at baseline (<65 or ≥65 years); (3) race (white and non-white); (4) presence/absence of diabetes at baseline; (5) baseline LDL-C (by tertile); (6) baseline HDL-C (by tertile); (7) baseline non-HDL-C (by tertile); (8) baseline TG (by tertile); (9) baseline hsCRP (≤3 mg/Land >3 mg/L); (10) baseline apo B (by tertile); (11) baseline RLP-C (by tertile); (12) Hopkins calculated LDL-C at baseline (by tertile); (13) waist/height ratio at baseline; (14) waist circumference at baseline.
The SAS proportional hazard regression procedure was used to automatically conduct the stepwise selection of the important baseline covariates. The minimum p-value for the inclusion of the baseline covariate into the proportional hazard model was 0.05, and these selected baseline covariates with p<0.10 would remain in the final model as important baseline covariates after all baseline covariates were evaluated by the model. The HR, 95% CI, and p-value comparing the two treatment groups, and the HR, 95% CI, and p-value for adjusting each selected important baseline covariate in the final model were presented.
As an additional exploratory analysis, the relationships between post-baseline lipid values and treatment effects with the primary and key secondary endpoints were assessed by adding lipid values (at 4 months, 1 year, etc.) as time varying covariates in the Cox proportional hazards model. Diagnostic plots for the proportional hazard's assumption was evaluated.

[3] = Overall (with all selected covariates)
[4] = adjusting baseline covariate: Age at baseline (<65 or ≥65 years)
[5] = adjusting baseline covariate: Baseline hsCRP (≤3 mg/L or >3 mg/L)
[6] = adjusting baseline covariate: Baseline non-HDL-C (by tertile)
[7] = adjusting baseline covariate: Presence/absence of diabetes at baseline
[8] = adjusting baseline covariate: Sex
[9] = adjusting time varying covariate HDL-C (mg/dL)
[10] = adjusting time varying covariate LDL-C (Hopkins) (mg/dL)
[11] = adjusting time varying covariate LDL-C (ultracentrifugation) (mg/dL)
[12] = adjusting time varying covariate LDL-C derived (mg/dL)
[13] = adjusting time varying covariate RLP-C (mg/dL)
[14] = adjusting time varying covariate TG (mg/dL)
[15] = adjusting time varying covariate apo B (mg/dL)
[16] = adjusting time varying covariate hsCRP (mg/dL)

CC/C=C\C/C=C\C/C=C\C/C=C\C/C=C\CCCC(=O)OCC [AMR101, eicosapentaenoic acid ethyl ester]
Key secondary endpoint, HR AMR101 group versus placebo patients with an increase in LDL-C ([1]; LDL-C at one year): 0.80
Key secondary endpoint, HR AMR101 group versus placebo patients with no change or a decrease in LDL-C ([1]; LDL-C at one year): 0.74
Primary endpoint, HR AMR101 group versus placebo patients with an increase in LDL-C ([1]; LDL-C at one year): 0.79
Primary endpoint, HR AMR101 group versus placebo patients with no change or a decrease in LDL-C ([1]; LDL-C at one year): 0.79
Key secondary endpoint, HR AMR101 group versus placebo patients with an increase in hsCRP ([1]; hsCRP at two years): 0.83
Key secondary endpoint, HR AMR101 group versus placebo patients with no change or a decrease in hsCRP ([1]; hsCRP at two years): 0.85
Primary endpoint, HR AMR101 group versus placebo patients with an increase in hsCRP ([1]; hsCRP at two years): 0.79
Primary endpoint, HR AMR101 group versus placebo patients with no change or a decrease in hsCRP ([1]; hsCRP at two years): 0.83
Time to key secondary endpoint, HR (95% CI) AMR101/Placebo [2, 3]: 0.730 (0.647-0.825)
Time to primary endpoint, HR (95% CI) AMR101/Placebo [2, 3]: 0.750 (0.680-0.828)
Time to key secondary endpoint, HR (95% CI) AMR101/Placebo [2, 4]: 0.739 (0.654-0.834)
Time to primary endpoint, HR (95% CI) AMR101/Placebo [2, 4]: 0.755 (0.684-0.833)
Time to key secondary endpoint, HR (95% CI) AMR101/Placebo [2, 5]: 0.731 (0.648-0.826)
Time to primary endpoint, HR (95% CI) AMR101/Placebo [2, 5]: 0.750 (0.679-0.828)
Time to key secondary endpoint, HR (95% CI) AMR101/Placebo [2, 6]: 0.738 (0.654-0.833)
Time to primary endpoint, HR (95% CI) AMR101/Placebo [2, 6]: 0.755 (0.684-0.833)
Time to key secondary endpoint, HR (95% CI) AMR101/Placebo [2, 7]: 0.731 (0.647-0.825)
Time to primary endpoint, HR (95% CI) AMR101/Placebo [2, 7]: 0.750 (0.679-0.827)
Time to key secondary endpoint, HR (95% CI) AMR101/Placebo [2, 8]: 0.734 (0.650-0.829)
Time to primary endpoint, HR (95% CI) AMR101/Placebo [2, 8]: 0.751 (0.680-0.829)
Time to key secondary endpoint, HR (95% CI) for Treatment (AMR101 vs Placebo) [2, 9]: 0.710 (0.629-0.802)
Time to primary endpoint, HR (95% CI) for Treatment (AMR101 vs Placebo) [2, 9]: 0.730 (0.661-0.806)
Time to primary endpoint, HR (95% CI) for Treatment (AMR101 vs Placebo) ([2]; adjusting time varying covariate LDL-C (Friedewald) (mg/dL)): 0.760 (0.688-0.839)
Time to key secondary endpoint, HR (95% CI) for Treatment (AMR101 vs Placebo) [2, 10]: 0.761 (0.674-0.860)
Time to primary endpoint, HR (95% CI) for Treatment (AMR101 vs Placebo) [2, 10]: 0.772 (0.699-0.852)
Time to key secondary endpoint, HR (95% CI) for Treatment (AMR101 vs Placebo) [2, 11]: 0.737 (0.652-0.834)
Time to primary endpoint, HR (95% CI) for Treatment (AMR101 vs Placebo) [2, 11]: 0.759 (0.687-0.839)
Time to key secondary endpoint, HR (95% CI) for Treatment (AMR101 vs Placebo) [2, 12]: 0.740 (0.655-0.836)
Time to primary endpoint, HR (95% CI) for Treatment (AMR101 vs Placebo) [2, 12]: 0.752 (0.681-0.830)
Time to key secondary endpoint, HR (95% CI) for Treatment (AMR101 vs Placebo) [2, 13]: 0.768 (0.679-0.867)
Time to primary endpoint, HR (95% CI) for Treatment (AMR101 vs Placebo) [2, 13]: 0.784 (0.709-0.866)
Time to key secondary endpoint, HR (95% CI) for Treatment (AMR101 vs Placebo) [2, 14]: 0.754 (0.668-0.851)
Time to primary endpoint, HR (95% CI) for Treatment (AMR101 vs Placebo) [2, 14]: 0.772 (0.700-0.853)
Time to key secondary endpoint, HR (95% CI) for Treatment (AMR101 vs Placebo) [2, 15]: 0.752 (0.665-0.850)
Time to primary endpoint, HR (95% CI) for Treatment (AMR101 vs Placebo) [2, 15]: 0.762 (0.690-0.842)
Time to key secondary endpoint, HR (95% CI) for Treatment (AMR101 vs Placebo) [2, 16]: 0.745 (0.660-0.841)
Time to primary endpoint, HR (95% CI) for Treatment (AMR101 vs Placebo) [2, 16]: 0.758 (0.686-0.836)
Time to key secondary endpoint, HR (95% CI) for Treatment (AMR101 vs Placebo) ([2]; adjusting time varying covariate non-HDL-C (mg/dL)): 0.773 (0.684-0.874)

— patent US12427134B2, “Methods of reducing the risk of cardiovascular events in a subject with atrial fibrillation and/or atrial flutter” (priority 2019, dated 2025)
